The values that follow come from publication PMC4453552 (mBio, 2015).

In assay [1] the target is T1, N-Flo1p (Saccharomyces cerevisiae, UniProt P32768).
T1 sequence (P32768 25-271 limits assumed): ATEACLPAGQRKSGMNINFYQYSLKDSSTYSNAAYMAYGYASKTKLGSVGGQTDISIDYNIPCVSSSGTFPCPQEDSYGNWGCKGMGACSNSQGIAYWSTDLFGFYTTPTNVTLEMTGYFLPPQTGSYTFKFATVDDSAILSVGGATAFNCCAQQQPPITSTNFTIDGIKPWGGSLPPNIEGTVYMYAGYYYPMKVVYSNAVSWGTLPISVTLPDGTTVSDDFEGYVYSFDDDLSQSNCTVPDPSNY
Nature of the assay: AFM force spectroscopy of glycosylated N-Flo1p self-binding. As to conditions: Tris solution with 20 mM EDTA and 100 mM mannose.

For assay [2], the target named is T2, N-Flo1p (Saccharomyces cerevisiae, UniProt P32768).
T2 sequence (P32768 23-271): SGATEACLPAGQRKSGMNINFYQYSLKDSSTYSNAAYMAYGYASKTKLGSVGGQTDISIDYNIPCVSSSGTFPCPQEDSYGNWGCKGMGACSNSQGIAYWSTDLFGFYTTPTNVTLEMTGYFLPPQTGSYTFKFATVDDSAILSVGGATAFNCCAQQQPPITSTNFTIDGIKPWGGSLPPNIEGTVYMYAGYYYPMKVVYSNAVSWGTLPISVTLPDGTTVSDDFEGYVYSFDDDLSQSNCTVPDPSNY
Nature of the assay: Fluorescence titration of carbohydrates with nonglycosylated N-Flo1p. In kind it is binding.

Another assay concerns N-Flo5p. As to conditions: cited from earlier work.
The target in assay [3] is T3, N-Lg-Flo1p (Saccharomyces pastorianus, UniProt B3IUB3, P58Q).
T3 sequence (B3IUB3 23-213 P58Q): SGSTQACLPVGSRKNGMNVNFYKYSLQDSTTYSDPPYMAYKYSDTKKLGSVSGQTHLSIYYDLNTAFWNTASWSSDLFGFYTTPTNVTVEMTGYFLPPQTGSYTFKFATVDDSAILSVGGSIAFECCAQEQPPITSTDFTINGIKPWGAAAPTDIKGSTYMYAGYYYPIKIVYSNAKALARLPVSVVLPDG
Put plainly: Fluorescence titration of carbohydrates with N-Lg-Flo1p. As to conditions: construct from the CBS1513 strain. In kind it is binding.

The target of assay [4] is T3, N-Lg-Flo1p. Particulars: cited from earlier work.
Assay [5] deals with T1, N-Flo1p. Nature of the assay: N-Flo1p self-binding by surface plasmon resonance. As to conditions: SPR, in the presence of Ca2+. In general terms: Surface plasmon resonance follows binding to a sensor surface in real time, without labels.
[6] abbreviates: read-out: Equilibrium dissociation constant (KD) N-Flo1p, fluorescence titration, nonglycosylated N-Flo1p, this work (footnote a).

Where two headings read alike, the source gives them in different places.

With `O=C(O)CN(CCN(CC(=O)O)CC(=O)O)CC(=O)O` [EDTA], the “Effect on unbinding events of N-Flo1p self-binding” value at N-Flo1p [1] is listed as “longer-distance events disappeared almost completely”.

For the molecule `OC[C@H]1OC(O)[C@H](O)[C@@H](O)[C@@H]1O` (some centres unmarked) [Glc, glucose], the “Affinity / interaction with N-Flo1p, in words” value on N-Flo1p [2] (fluorescence titration) is recorded as “very weakly”. Besides, in the assay with N-Flo5p, the “Binding to N-Flo5p, in words” value was “very weakly”. By Kd is commonly meant the concentration at which binding is half-saturated. Molecule `OC[C@H]1OC(O)[C@@H](O)[C@@H](O)[C@@H]1O` (stereo partly drawn) [M (Man), D-mannose] returned a Kd on N-Flo1p [2] of 8.7 ± 0.43 mM. Further, the “Affinity / interaction with N-Flo1p, in words” value on N-Flo1p [2] (fluorescence titration, listed as D-mannose) was “low-millimolar range”; on N-Flo1p [2] (fluorescence titration, listed as mannose), “millimolar range”. Moreover, the “KD range for N-Lg-Flo1p, in words” value on N-Lg-Flo1p [3] is “high micromolar range”. Consider `OC[C@H]1O[C@H](O[C@@H]2C(O)O[C@H](CO)[C@@H](O)[C@@H]2O)[C@@H](O)[C@@H](O)[C@@H]1O` (stereo partly drawn) [Mα-1,2-M, α-1,2-mannobiose], for which the “Fold difference in binding between the mono- and disaccharides (N-Flo1p)” value at N-Flo1p [2] (α-1,2-mannobiose versus D-mannose) is 10 fold. For `OC[C@H]1O[C@H](O[C@H]2[C@H](O)[C@@H](CO)OC(O)[C@H]2O)[C@@H](O)[C@@H](O)[C@@H]1O` (stereo partly drawn) [Mα-1,3-M, α-1,3-linked mannobiose], at N-Flo1p [2] (setting [6]), the Kd worked out at 3.3 ± 0.34 mM. In the assay on N-Flo5p, the “Binding to N-Flo5p, in words” value is on record as “No binding”. As for `OC[C@H]1O[C@H](OC[C@H]2OC(O)[C@@H](O)[C@@H](O)[C@@H]2O)[C@@H](O)[C@@H](O)[C@@H]1O` (stereo partly drawn) [Mα-1,6-M, α-1,6-linked mannobiose], the Kd on N-Flo1p [2] (setting [6]) was 6.9 ± 0.64 mM. Also, the “Binding to N-Flo5p, in words” value with N-Flo5p is “No binding”. Regarding `O=P(O)(O)OC1O[C@H](CO)[C@@H](O)[C@H](O)[C@@H]1O` (some centres unmarked) [mannose-1-phosphate], the “Affinity for N-Lg-Flo1p, in words” value at N-Lg-Flo1p [4] is listed as “micromolar-affinity”.

B1: N-deglycosylated N-Flo1p: N-Flo1p after removal of the N-glycans with endo-β-N-acetylglucosaminidase H (protein)
chain: SGATEACLPAGQRKSGMNINFYQYSLKDSSTYSNAAYMAYGYASKTKLGSVGGQTDISIDYNIPCVSSSGTFPCPQEDSYGNWGCKGMGACSNSQGIAYWSTDLFGFYTTPTNVTLEMTGYFLPPQTGSYTFKFATVDDSAILSVGGATAFNCCAQQQPPITSTNFTIDGIKPWGGSLPPNIEGTVYMYAGYYYPMKVVYSNAVSWGTLPISVTLPDGTTVSDDFEGYVYSFDDDLSQSNCTVPDPSNY
modifications: N-glycans removed with EndoH (GlcNAc residues remain); O-glycans (5 or 6 mannoses) present
B1: the “Binding of N-deglycosylated N-Flo1p to immobilized N-deglycosylated N-Flo1p” value in the assay with N-Flo1p [5] is reported as “almost no binding”.
